Laboratory results reported in patent US8163793B2, “Proline derivatives” (Hoffman-La Roche Inc., priority 2009, dated 2012).

How the values were obtained:
Cathepsin S = Cathepsin S (UniProt P25774); assay: Cathepsin enzyme inhibition assay (fluorogenic peptide substrate Z-Val-Val-Arg-AMC), Cathepsin S; assay type: biochemical, human and mouse; details: enzyme 1 nM, substrate 20 μM, pH 6.5; read-out: CatS IC50
Method in brief: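 Compounds were combined with 1 nM human or mouse enzyme, and substrate then started the reaction. The buffer was potassium phosphate (100 mM, pH 6.5) containing EDTA-Na 5 mM, Triton X-100 0.001% and […] 5 mM.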

Cat L = Cat L (UniProt P07711); assay: Cathepsin enzyme inhibition assay (fluorogenic peptide substrate Z-Val-Val-Arg-AMC), Cathepsin L; assay type: biochemical, human and mouse; details: for IC50: enzyme 1 nM, substrate 20 μM, pH 6.5, read-out: CatL IC50
Method in brief: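 Fluorogenic cleavage of Z-Val-Val-Arg-AMC (20 μM) by 1 nM Cat L was monitored at ex 360/em 465 nm for 20 min, the linear phase. The buffer was 100 mM potassium phosphate pH 6.5 with 5 mM EDTA and DTT. IC50 values were derived by standard methods, in μM.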

| IC50 (Cathepsin S) [nM] | CatL, % @25 uM (Cat L; @25 uM compound) [% @25 uM] | IC50 (Cat L) [nM] | Compound |
| --- | --- | --- | --- |
| 2080 | 95 | – | Cc1cc(N2C[C@H](S(=O)(=O)CC3CC3)C[C@H]2C(=O)NC2(C#N)CC2)n(CC(F)(F)F)n1 [Example 467, (2S,4R)-4-Cyclopropylmethanesulfonyl-1-[5-methyl-2-(2,2,2-trifluoro-ethyl)-2H-pyrazol-3-yl]-pyrrolidine-2-carboxylic acid (1-cyano-cyclopropyl)-amide] |
| 3.3 | – | ≥ 25000 | N#CC1(NC(=O)[C@@H]2C[C@@H](S(=O)(=O)c3ccccc3C(F)(F)F)CN2c2cc(C3CC3)n[nH]2)CC1 [Example 400, (2S,4R)-1-(5-Cyclopropyl-2H-pyrazol-3-yl)-4-(2-trifluoromethyl-benzenesulfonyl)-pyrrolidine-2-carboxylic acid (1-cyano-cyclopropyl)-amide] |
| 19.5 | – | ≥ 25000 | Cc1cc(-n2nc(C)cc2N2C[C@H](S(=O)(=O)c3ccccc3C(F)(F)F)C[C@H]2C(=O)NC2(C#N)CC2)cc(C)n1 [Example 351] |
| 3.75 | – | ≥ 25000 | Cn1nc(N2C[C@H](S(=O)(=O)c3ccccc3C(F)(F)F)C[C@H]2C(=O)NC2(C#N)CC2)cc1C1CCOCC1 [Example 393, (2S,4R)-1-[1-Methyl-5-(tetrahydro-pyran-4-yl)-1H-pyrazol-3-yl]-4-(2-trifluoromethyl-benzenesulfonyl)-pyrrolidine-2-carboxylic acid (1-cyano-cyclopropyl)-amide] |
| 62.5 | – | ≥ 25000 | Cc1cc(N2C[C@H](S(=O)(=O)c3ccccc3C(F)(F)F)C[C@H]2C(=O)NC2(C#N)CC2)n(C(C)(C)C)n1 [Example 339, (2S,4R)-1-(2-tert-Butyl-5-methyl-2H-pyrazol-3-yl)-4-(2-trifluoromethyl-benzenesulfonyl)-pyrrolidine-2-carboxylic acid (1-cyano-cyclopropyl)-amide] |
| 0.48 | – | 35600 | Cc1cc(N2C[C@H](S(=O)(=O)c3ccc(F)cc3C(F)(F)F)C[C@H]2C(=O)NC2(C#N)CC2)n(C2CCC2)n1 [Example 388, (2S,4R)-1-(2-Cyclobutyl-5-methyl-2H-pyrazol-3-yl)-4-(4-fluoro-2-trifluoromethyl-benzenesulfonyl)-pyrrolidine-2-carboxylic acid (1-cyano-cyclopropyl)-amide] |
| 0.08 | – | 26.3 | CC(C)(C)N1CCN(c2ccc(S(=O)(=O)[C@@H]3C[C@@H](C(=O)NC4(C#N)CC4)N(C(=O)C4(c5ccc(Cl)nc5)CC4)C3)c(Cl)c2)CC1 [Example 371, (2S,4R)-4-[4-(4-tert-Butyl-piperazin-1-yl)-2-chloro-benzenesulfonyl]-1-[1-(6-chloro-pyridin-3-yl)-cyclopropanecarbonyl]-pyrrolidine-2-carboxylic acid (1-cyano-cyclopropyl)-amide; Compound with Formic Acid] |
| 0.655 | – | 5280 | Cc1cc(N2C[C@H](S(=O)(=O)c3ccc(-n4cccn4)cc3Cl)C[C@H]2C(=O)NC2(C#N)CC2)n(C2CCC2)n1 [Example 491, (2S,4R)-4-(2-Chloro-4-pyrazol-1-yl-benzenesulfonyl)-1-(2-cyclobutyl-5-methyl-2H-pyrazol-3-yl)-pyrrolidine-2-carboxylic acid (1-cyano-cyclopropyl)-amide] |
| 0.875 | – | 130 | CC(C(=O)N1C[C@H](S(=O)(=O)c2ccccc2Cl)C[C@H]1C(=O)NC1(C#N)CC1)c1ccc(Cl)cc1 (stereo partly drawn) [Example 431] |
| 0.657 | – | 1760 | COc1ccc(S(=O)(=O)[C@@H]2C[C@@H](C(=O)NC3(C#N)CC3)N(c3cc(C)nn3Cc3ccccc3)C2)c(Cl)c1 [Example 376, (2S,4R)-1-(2-Benzyl-5-methyl-2H-pyrazol-3-yl)-4-(2-chloro-4-methoxy-benzenesulfonyl)-pyrrolidine-2-carboxylic acid (1-cyano-cyclopropyl)-amide] |
| 0.6 | – | 318 | Cc1cc(N2C[C@H](S(=O)(=O)c3ccccc3Cl)C[C@H]2C(=O)NC2(C#N)CC2)n(C2CCCCC2)n1 [Example 477, (2S,4R)-4-(2-Chloro-benzenesulfonyl)-1-(2-cyclohexyl-5-methyl-2H-pyrazol-3-yl)-pyrrolidine-2-carboxylic acid (1-cyano-cyclopropyl)-amide] |
| 0.935 | – | ≥ 25000 | N#CC1(NC(=O)[C@@H]2C[C@@H](S(=O)(=O)c3ccccc3C(F)(F)F)CN2c2nc(Cl)ns2)CC1 [Example 405, (2S,4R)-1-(3-Chloro-[1,2,4]thiadiazol-5-yl)-4-(2-trifluoromethyl-benzenesulfonyl)-pyrrolidine-2-carboxylic acid (1-cyano-cyclopropyl)-amide] |

The remaining lines, values behind:

| Compound | IC50 (Cathepsin S) [nM] | CatL, % @25 uM (Cat L; @25 uM compound) [% @25 uM] | IC50 (Cat L) [nM] |
| --- | --- | --- | --- |
| N#CC1(NC(=O)[C@@H]2C[C@@H](S(=O)(=O)c3ccc(Cl)cc3Cl)CN2C(=O)C2(c3ccc(Cl)cc3)CC2)CC1 [Example 223, (2S,4R)-1-[1-(4-Chloro-phenyl)-cyclopropanecarbonyl]-4-(2,4-dichloro-benzenesulfonyl)-pyrrolidine-2-carboxylic acid (1-cyano-cyclopropyl)-amide] | 0.1 | – | 45 |
| Cc1cc(N2C[C@H](S(=O)(=O)c3ccccc3C(F)(F)F)C[C@H]2C(=O)NC2(C#N)CC2)n(C2CCCCC2)n1 [Example 318, (2S,4R)-1-(2-Cyclohexyl-5-methyl-2H-pyrazol-3-yl)-4-(2-trifluoromethyl-benzenesulfonyl)-pyrrolidine-2-carboxylic acid (1-cyano-cyclopropyl)-amide] | 0.437 | – | 11300 |
| N#CC1(NC(=O)[C@@H]2C[C@@H](S(=O)(=O)c3ccc(OCC(F)(F)F)cc3Cl)CN2C(=O)C2(c3ccc(F)cc3)CC2)CC1 [Example 295, (2S,4R)-4-[2-Chloro-4-(2,2,2-trifluoro-ethoxy)-benzenesulfonyl]-1-[1-(4-fluoro-phenyl)-cyclopropanecarbonyl]-pyrrolidine-2-carboxylic acid (1-cyano-cyclopropyl)-amide] | 0.03 | – | 925 |
| CC(C)CC(=O)N1C[C@H](S(=O)(=O)c2ccccc2Cl)C[C@H]1C(=O)NC1(C#N)CC1 [Example 220, (2S,4R)-4-(2-Chloro-benzenesulfonyl)-1-(3-methyl-butyryl)-pyrrolidine-2-carboxylic acid (1-cyano-cyclopropyl)-amide] | 0.4 | – | 17800 |
| N#CC1(NC(=O)[C@@H]2C[C@@H](S(=O)(=O)c3ccc(Cl)cc3Cl)CN2c2ccccc2[N+](=O)[O-])CC1 [Example 167, (2S,4R)-4-(2,4-Dichloro-benzenesulfonyl)-1-(2-nitro-phenyl)-pyrrolidine-2-carboxylic acid (1-cyano-cyclopropyl)-amide] | 1.4 | – | 17400 |
| Cc1cc(N2C[C@H](S(=O)(=O)c3ccccc3)C[C@H]2C(=O)NC2(C#N)CC2)n(-c2ccc(C(F)(F)F)cc2)n1 [Example 261, (2S,4R)-4-Benzenesulfonyl-1-[5-methyl-2-(4-trifluoromethyl-phenyl)-2H-pyrazol-3-yl]-pyrrolidine-2-carboxylic acid (1-cyano-cyclopropyl)-amide] | 12 | – | 27000 |
| CC1(C(=O)N2C[C@H](S(=O)(=O)c3ccc(OCC(F)(F)F)cc3Cl)C[C@H]2C(=O)NC2(C#N)CC2)CC1 [Example 175, (2S,4R)-4-[2-Chloro-4-(2,2,2-trifluoro-ethoxy)-benzenesulfonyl]-1-(1-methyl-cyclopropanecarbonyl)-pyrrolidine-2-carboxylic acid (1-cyano-cyclopropyl)-amide] | 0.49 | – | 15900 |
| C[C@H](Oc1ccc(S(=O)(=O)[C@@H]2C[C@H](C(=O)NC3(C#N)CC3)N(C(=O)C(C)(C)C)C2)c(Cl)c1)C(F)(F)F [Example 204, (2R,4R)-4-[2-Chloro-4-((S)-2,2,2-trifluoro-1-methyl-ethoxy)-benzenesulfonyl]-1-(2,2-dimethyl-propionyl)-pyrrolidine-2-carboxylic acid (1-cyano-cyclopropyl)-amide] | 205 | – | ≥ 25000 |
| CCN1CCN(c2ccc(S(=O)(=O)[C@@H]3C[C@@H](C(=O)NC4(C#N)CC4)N(C(=O)OC(C)(C)C)C3)c(Cl)c2)CC1 [Example 138, (2S,4R)-4-[2-Chloro-4-(4-ethyl-piperazin-1-yl)-benzenesulfonyl]-2-(1-cyano-cyclopropylcarbamoyl)-pyrrolidine-1-carboxylic acid tert.-butyl ester] | 3.4 | – | 28600 |
| N#CC1(NC(=O)[C@@H]2C[C@@H](S(=O)(=O)c3ccc(-c4ccnc(Cl)c4)cc3C(F)(F)F)CN2C(=O)C2(C(F)(F)F)CC2)CC1 [Example 245, (2S,4R)-4-[4-(2-Chloro-pyridin-4-yl)-2-trifluoromethyl-benzenesulfonyl]-1-(1-trifluoromethyl-cyclopropanecarbonyl)-pyrrolidine-2-carboxylic acid (1-cyano-cyclopropyl)-amide] | 0.168 | – | 39200 |
| N#CCNC(=O)[C@@H]1C[C@@H](S(=O)(=O)c2ccccc2Cl)CN1C(=O)c1ccc(F)cc1 [Example 59, (2S,4R)-4-(2-Chloro-benzenesulfonyl)-1-(4-fluoro-benzoyl)-pyrrolidine-2-carboxylic acid cyanomethyl-amide] | 1.8 | – | 12200 |
| N#CC1(NC(=O)[C@@H]2C[C@@H](S(=O)(=O)c3ccc(-n4cccn4)cc3Cl)CN2C(=O)C2(C(F)(F)F)CC2)CC1 [Example 147, (2S,4R)-4-(2-Chloro-4-pyrazol-1-yl-benzenesulfonyl)-1-(1-trifluoromethyl-cyclopropanecarbonyl)-pyrrolidine-2-carboxylic acid (1-cyano-cyclopropyl)-amide] | 0.4 | – | 13600 |
